Assay results published in patent US7226625B2, “Identification of compositions, compositions, and methods of treatment of obesity and overweight conditions” (Phytomyco Research Corporation, priority 2003, dated 2007).

How the values were obtained:
3T3-L1 preadipocytes = assay: adipocyte differentiation blocking assay (GPDH level in cell lysates); type: cell-based, mouse; settings: after 10-fold dilution (FIG. 6)
Source text: The adipocyte differentiation blocking assay is an enzyme assay that examines the ability of compounds to block differentiation of preadipocytes to adipocytes by quantifying the level of GPDH in cell lysates (inhibition of adipogenesis). Based on preliminary results using this assay, we selected two plant extracts (designated as PM765, and as PM902, respectively) and collected eluant fractions isolated by HPLC, the extracts being divided into 40 or 120 fractions in collection wells (collected at 30 second or 1 minute HPLC eluant flow time intervals) (FIG. 3). […] MDI treatment is defined as Differentiation media causes the 3T3-L1 preadipocytes (fibroblast cells) to differentiate into adipocytes (fat cells). Differentiation media is composed of: • Per 100 ml of differentiation media • 90 mL DMEM media • 10 mL FCS • 1% pen/strep • 1 ml methylisobutylxanthine (stock 11.5 mg/mL) • 100 ul dexamethasone (stock 0.4 mg/mL) • 1 ml insulin (stock 1 mg/mL)
Inhibition of adipocyte differentiation is assayed by measuring the levels of the enzyme glycerol-3-phosphate dehydrogenase (GPDH). […]
In this assay pre-adipocyte cells require 10 to 15 days to differentiate into adipocytes. […] After cells have undergone the 10–15 days required to differentiate, cells are assessed for GPDH activity.
Results are expressed as a percentage of the untreated control average. […]

adipocytes = assay: assays of this invention (lipolysis, adipocyte differentiation, de-differentiation); type: cell-based, mouse
Protocol: Assay 1. Lipolysis Assay.
In this assay, pre-adipocyte cells are seeded in 96-well plates and are induced to convert to adipocytes over the course of a 10–15 day treament with lipolytic reagents. After cells have converted to adipocytes, the cells are starved, and then subsequently treated with or exposed to test compounds or mixtures of compounds or extracts of plants or fractionated extracts of plants. The adipocytes are treated with test compounds in the presence of a surrounding cell medium. Over the course of 1 to 3 hours after exposure to the test compounds or mixture of compounds, the amount of glycerol present in the cell medium is measured. Glycerol and fatty acids are hydrolysis products of triglycerides, and glycerol is released from cells after enzymatic hydrolysis or breakdown of lipids.
Assay 2. […]
In this assay pre-adipocyte cells require 10 to 15 days to differentiate into adipocytes. […] After cells have undergone the 10–15 days required to differentiate, cells are assessed for GPDH activity. […]
This assay comprises a colorimetric assay to screen for compounds and mixtures of compounds that induce the differentiation of adipocytes to preadipocytes. The presence of such compounds is determined by measuring the relative levels of the enzyme GPDH. […] GPDH levels present in the cells are measured to determine if the cells still express the adipocyte phenotype. […]

[1] = in vivo; cited from earlier work
leptin = settings: cited from earlier work
3T3-L1 cells = settings: GPDH activity, oil red O staining; cited from earlier work

Compound | blocking of adipocyte differentiation, as a percent of positive control (3T3-L1 preadipocytes) | activity in the assays of this invention (adipocytes) | decrease of the amount of fat absorbed from the diet [1] | effect on leptin levels (leptin) | differentiation of preadipocytes (3T3-L1 cells)
C=C[C@](C)(O)CC[C@@H]1[C@@]2(C)CCCC(C)(C)[C@@H]2CC[C@@]1(C)O [sclareol, labdane-14-ene-8,13-diol] | blocking of adipocyte differentiation | active | – | – | –
CCCCCCCCCCC[C@@H](C[C@@H]1OC(=O)[C@H]1CCCCCC)OC(=O)[C@H](CC(C)C)NC=O [Orlistat] | – | – | about 30% | – | –
CC1(C)CCC[C@]2(C)[C@H]3CC(=O)O[C@]3(C)CC[C@@H]12 [sclareolide, 3aR-[3a-alpha, 5a-beta, 9a-alpha, 9b-alpha]-decahydro-3a,6,6,9a-tetramethylnaphtho[2,1-b]furane-2(1H)-one] | blocking of adipocyte differentiation | active | – | – | –
myostatin: adipocyte blocking agent, inhibitor of skeletal muscle growth, member of the TGF-β superfamily | – | – | – | no effect | inhibits differentiation of preadipocytes
